According to the NIST ThermoML archive (doi:10.1016/j.jct.2017.01.004):
Numbers after ± are expanded uncertainties.

Experiments:
[1] = Molar enthalpy of transition or fusion; details: Crystal; DSC
[2] = Crystal; DTA

Molar enthalpy of transition or fusion [1]: 19.9 ± 1.1 kJ/mol
Normal melting temperature [2]: 77.60 ± 1.1 °C
Compound: O=C(O)CO [2-hydroxyethanoic acid]
